Laboratory results published in patent US11358977B2, “Deuterated pyridone amides and prodrugs thereof as modulators of sodium channels” (VERTEX PHARMACEUTICALS INCORPORATED, priority 2017, dated 2022).

Assays:
[1] = In vitro microsomal metabolic stability assay, dog; format: in vitro ADME; conditions: dog liver microsomes 0.25 mg/mL, 1.0 μM compound, NADPH
Description: (§1) Materials. Rat, Dog, Monkey and Human liver microsomes (20 mg/mL) were obtained from Xenotech, LLC (Lenexa, Kans.). P-nicotinamide adenine dinucleotide phosphate, reduced form (NADPH), magnesium chloride (MgCl2), and dimethyl sulfoxide (DMSO) were purchased from Sigma-Aldrich.
(§2) Methods. […] The 10 mM stock solutions were diluted to 100 μM in DMSO. In each cluster polypropylene tube, 190.7 μL of 100 mM phosphate buffer, pH 7.4 was added, then 2.5 μL of liver mocrosomes (20 mg/mL, rat, dog, monkey or human) was added, then a 2 μL aliquot of the 100 μM test compound was added, and the mixture was pre-warmed for 10 minutes. Reactions were initiated by addition of 4.8 μL of pre-warmed NADPH solution (100 mM in 100 mM phosphate buffer). The final reaction volume was 200 μL and contained 0.25 mg/mL rat, dog, monkey or human liver microsomes, 1.0 μM test compound, and 2.4 mM NADPH in 0.1 M potassium phosphate buffer, pH 7.4. The reaction mixtures were incubated at 37° C., and the reactions were quenched at 0, 15, 30 and 60 minutes by adding 200 μL of ice-cold quench solution (ACN:MeOH:0.1% formic acid in water 2:2:1) containing internal standard, n=3 per time point. The tubes were centrifuged and supernatants were analyzed for amounts of the test compound remaining by LC-MS/MS. The HPLC system included a Phenomenex Luna C8 column, 3 micron, 2 mm diameter×30 mm long eluted with a gradient mobile phase consisting of 0.1% formic acid in water or in acetonitrile. The analytes were detected by MS/MS with Electrospray Ionization (ESI) in the mode of multiple reaction monitoring (MRM). The injection volume was 10 μL.

[2] = In vitro microsomal metabolic stability assay, human; format: in vitro ADME; conditions: human liver microsomes 0.25 mg/mL, 1.0 μM compound, NADPH
Description: as §1, §2

human NaV 1.8 = biological target: T1, human NaV 1.8 (Homo sapiens, UniProt Q9Y5Y9); test: E-VIPR assay for NaV inhibition; format: cell-based; conditions: HEK cells expressing human NaV 1.8, E-VIPR, normalised to positive control 25 μM
T1 construct: expressed in transfected cells; host or cells: HEK cells, grown under blasticidin selection; KIR2.1 BacMam virus added before seeding
From the text: Sodium ion channels are voltage-dependent proteins that can be activated by inducing membrane voltage changes by applying electric fields. […] The instrument comprises a microtiter plate handler, an optical system for exciting the coumarin dye while simultaneously recording the coumarin and oxonol emissions, a waveform generator, a current- or voltage-controlled amplifier, and parallel electrode pairs that are inserted into assay plate wells. Under integrated computer control, this instrument passes user-programmed electrical stimulus protocols to cells within the wells of the microtiter plate.
The solution was made by adding 10% Pluronic F127 stock equal to combined volumes of CC2-DMPE and DiSBAC6(3).
Then 25 μL per well from compound plate was transferred to each cell plate.
A pre-stimulus recording was performed for 0.5 seconds to obtain the un-stimulated intensities baseline. The stimulatory waveform was followed by 0.5 seconds of post-stimulation recording to examine the relaxation to the resting state.

[3] = In vivo pharmacokinetic study, rat IV; set-up: species or system Male Sprague Dawley rats
Description: General Procedures. Concentrations of the test compounds in plasma were determined using a high performance liquid chromatography/tandem mass spectrometry (HPLC/MS/MS) method. The test compounds along with the internal standard (IS) were extracted from plasma (20 μL) by direct protein precipitation with acetonitrile (1:25 ratio of plasma/acetonitrile). After centrifugation, the supernatant extract (10 μL) was injected onto the LC/MS/MS system. The HPLC system included a Phenomenex Luna C8 column, 3 micron, 2 mm diameter×30 mm long eluted with a gradient mobile phase consisting of 0.1% formic acid in water or in acetonitrile. The analytes were detected by MS/MS with Electrospray Ionization (ESI) in the mode of multiple reaction monitoring (MRM). The lower limit of quantitation (LLOQ) was 1.00 ng/mL. The linear range of the assay was from 1 to 3000 ng/mL. The assay accuracy was within 20% of the nominal values.
Plasma concentration-time profiles of the test compounds were analyzed by noncompartmental pharmacokinetic methods using PK module in Watson, Version 7.4.2 (Thermo Scientific). Pharmacokinetic parameters including AUCa11, AUC0-∞, C0, Cl, Vss and t1/2 were determined.
Descriptive statistical data of plasma concentrations and pharmacokinetic parameter estimates were calculated, including the mean, standard deviation (SD), and coefficient of variation (% CV) using Microsoft Excel 2010.
Rat IV Study. Compounds 7 and 10 were administered simultaneously in a single intravenous bolus to Male Sprague Dawley rats (n=3) via jugular cannula. The nominal dose of each compound was 0.5 mg/kg. The cassette dosing solution was formulated in D5W with additives Animals had free access to food and water before and after dosing. Blood samples (approximately 0.25 mL each) were collected via a carotid artery catheter prior to dosing and at 0 (predose), 5 min, 10 min, 0.25, 0.5, 1, 2, 4, 8, 12, 24 hours post dose. Each blood sample was collected into a tube that was kept on wet ice and contained potassium EDTA as the anticoagulant. Plasma was separated and stored at approximately −70° C. until analysis.
Plasma samples and dosing solutions were analyzed using a liquid chromatography/tandem mass spectrometry (LC/MS/MS) method to determine the concentrations of Compounds 7 and 10 with a lower limit of quantitation (LLOQ) of 1.00 ng/mL. The average plasma concentrations of Compounds 7 and 10 are plotted in FIG. 5 and are also presented in tabular form in Table 5.
Plasma concentration vs. time data were subjected to noncompartmental pharmacokinetic (PK) analysis. To determined the measured dose of each compound, the dose formulation (50 μL) was aliquoted into a cluster tube at the time of dosing. Then 450 μL of DMSO was added to the tube to dilute it 10×. Then the diluted dosing solution was spiked into rat blank plasma with 100× dilution. The resulting plasma sample was analyzed along with the plasma samples collected from rats that were dosed with the compounds, using the same LC/MS/MS method.

[4] = In vitro microsomal metabolic stability assay, monkey; format: in vitro ADME; conditions: monkey liver microsomes 0.25 mg/mL, 1.0 μM compound, NADPH
Description: as §1, §2

[5] = male, Sprague Dawley, plasma, rat IV bolus, cassette, nominal 0.5 mg/kg, noncompartmental analysis

T1 sequence (Q9Y5Y9 whole entry): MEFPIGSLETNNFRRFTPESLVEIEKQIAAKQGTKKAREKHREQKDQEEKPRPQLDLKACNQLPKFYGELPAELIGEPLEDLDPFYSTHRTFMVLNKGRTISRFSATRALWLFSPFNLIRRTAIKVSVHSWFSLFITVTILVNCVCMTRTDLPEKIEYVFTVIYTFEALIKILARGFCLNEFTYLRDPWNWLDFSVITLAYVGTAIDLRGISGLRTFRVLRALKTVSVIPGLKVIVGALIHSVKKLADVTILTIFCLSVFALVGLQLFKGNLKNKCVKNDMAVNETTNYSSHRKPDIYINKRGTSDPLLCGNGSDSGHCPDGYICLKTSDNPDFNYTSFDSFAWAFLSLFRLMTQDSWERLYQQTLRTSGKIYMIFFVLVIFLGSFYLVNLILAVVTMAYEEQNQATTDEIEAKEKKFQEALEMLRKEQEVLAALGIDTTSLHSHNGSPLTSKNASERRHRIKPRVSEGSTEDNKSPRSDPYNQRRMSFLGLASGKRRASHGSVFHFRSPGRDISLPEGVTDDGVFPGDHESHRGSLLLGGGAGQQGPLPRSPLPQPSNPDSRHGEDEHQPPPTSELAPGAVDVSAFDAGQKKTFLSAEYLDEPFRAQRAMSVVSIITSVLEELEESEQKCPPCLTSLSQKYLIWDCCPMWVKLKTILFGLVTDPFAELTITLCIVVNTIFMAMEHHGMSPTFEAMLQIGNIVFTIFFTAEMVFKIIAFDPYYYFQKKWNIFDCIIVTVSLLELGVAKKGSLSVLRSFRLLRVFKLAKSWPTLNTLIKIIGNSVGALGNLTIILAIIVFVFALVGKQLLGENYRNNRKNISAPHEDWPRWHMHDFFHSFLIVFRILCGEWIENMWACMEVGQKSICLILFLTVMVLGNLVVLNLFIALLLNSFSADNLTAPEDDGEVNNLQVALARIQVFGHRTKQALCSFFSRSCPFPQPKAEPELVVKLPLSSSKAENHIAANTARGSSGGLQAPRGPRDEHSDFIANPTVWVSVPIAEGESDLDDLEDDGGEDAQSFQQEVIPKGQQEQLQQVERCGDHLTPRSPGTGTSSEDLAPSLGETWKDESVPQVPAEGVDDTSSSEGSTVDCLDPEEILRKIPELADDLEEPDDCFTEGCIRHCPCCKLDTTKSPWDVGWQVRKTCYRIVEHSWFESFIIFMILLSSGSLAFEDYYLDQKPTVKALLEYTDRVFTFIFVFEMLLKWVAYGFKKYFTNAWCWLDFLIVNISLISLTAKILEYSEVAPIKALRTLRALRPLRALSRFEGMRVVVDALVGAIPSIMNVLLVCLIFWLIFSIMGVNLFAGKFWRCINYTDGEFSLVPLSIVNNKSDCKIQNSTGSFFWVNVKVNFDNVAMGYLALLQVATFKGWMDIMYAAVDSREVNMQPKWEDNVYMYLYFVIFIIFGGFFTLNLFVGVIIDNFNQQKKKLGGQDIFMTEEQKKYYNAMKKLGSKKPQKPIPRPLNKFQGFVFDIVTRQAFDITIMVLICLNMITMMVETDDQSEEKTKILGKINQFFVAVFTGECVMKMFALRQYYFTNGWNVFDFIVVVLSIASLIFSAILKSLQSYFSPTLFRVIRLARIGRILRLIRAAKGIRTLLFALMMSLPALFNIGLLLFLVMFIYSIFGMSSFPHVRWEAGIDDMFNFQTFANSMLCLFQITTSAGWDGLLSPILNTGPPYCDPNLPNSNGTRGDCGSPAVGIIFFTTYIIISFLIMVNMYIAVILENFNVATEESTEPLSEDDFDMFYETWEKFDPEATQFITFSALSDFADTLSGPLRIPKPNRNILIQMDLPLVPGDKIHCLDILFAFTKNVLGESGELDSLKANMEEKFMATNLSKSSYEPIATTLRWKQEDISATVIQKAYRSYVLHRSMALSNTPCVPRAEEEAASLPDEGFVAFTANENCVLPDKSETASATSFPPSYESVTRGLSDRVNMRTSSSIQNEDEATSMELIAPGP

% remaining ([1]; 0 min): 100%
% remaining ([1]; 15 min): 86.1%
% remaining ([1]; 30 min): 85.8%
% remaining ([1]; 60 min): 87.5%
% remaining ([2]; 0 min): 100%
% remaining ([2]; 15 min): 109%
% remaining ([2]; 30 min): 105%
% remaining ([2]; 60 min): 106%
Nav1.8 Max % Activity (human NaV 1.8): 98%
clearance compared with Compound 10 ([3]; in rats, IV): lower
t1/2 compared with Compound 10 ([3]; in rats, IV): longer
concentration at 0.083 h ([3]; male, Sprague Dawley, plasma, rat IV bolus, cassette, nominal 0.5 mg/kg, 0.083 hours): 420 ng/mL
concentration at 0.167 h ([3]; male, Sprague Dawley, plasma, rat IV bolus, cassette, nominal 0.5 mg/kg, 0.167 hours): 399 ng/mL
concentration at 0.25 h ([3]; male, Sprague Dawley, plasma, rat IV bolus, cassette, nominal 0.5 mg/kg, 0.25 hours): 371 ng/mL
concentration at 0.5 h ([3]; male, Sprague Dawley, plasma, rat IV bolus, cassette, nominal 0.5 mg/kg, 0.5 hours): 301 ng/mL
concentration at 1 h ([3]; male, Sprague Dawley, plasma, rat IV bolus, cassette, nominal 0.5 mg/kg, 1 hour): 256 ng/mL
concentration at 2 h ([3]; male, Sprague Dawley, plasma, rat IV bolus, cassette, nominal 0.5 mg/kg, 2 hours): 208 ng/mL
concentration at 4 h ([3]; male, Sprague Dawley, plasma, rat IV bolus, cassette, nominal 0.5 mg/kg, 4 hours): 154 ng/mL
concentration at 8 h ([3]; male, Sprague Dawley, plasma, rat IV bolus, cassette, nominal 0.5 mg/kg, 8 hours): 91.3 ng/mL
concentration at 12 h ([3]; male, Sprague Dawley, plasma, rat IV bolus, cassette, nominal 0.5 mg/kg, 12 hours): 47.6 ng/mL
concentration at 24 h ([3]; male, Sprague Dawley, plasma, rat IV bolus, cassette, nominal 0.5 mg/kg, 24 hours): 7.57 ng/mL
AUC [3, 5]: 937 ng·h/mL
AUC(0-inf) [3, 5]: 961 ng·h/mL
C0 [3, 5]: 211 ng/mL
clearance [3, 5]: 8.07 mL/min/kg
half-life [3, 5]: 4.4 h
Vd ([3]; male, Sprague Dawley, plasma, rat IV bolus, cassette, nominal 0.5 mg/kg, noncompartmental analysis, read-out: Vss): 3 L/kg
% remaining ([4]; 0 min): 100%
% remaining ([4]; 15 min): 97.0%
% remaining ([4]; 30 min): 93.3%
% remaining ([4]; 60 min): 92.5%
SMILES: [2H]C([2H])([2H])c1cc(F)ccc1Oc1cc(C(F)(F)F)ccc1C(=O)Nc1cc[nH]c(=O)c1 [Compound 7, 2-(4-fluoro-2-(methyl-d3)phenoxy)-N-(2-oxo-1,2-dihydropyridin-4-yl)-4-(trifluoromethyl)benzamide]
